Values after ≈ are worked out from the molar mass of the structure shown.

One experiment concerns S. aureus ATCC29123. As to the kind of experiment: Lipid II antagonization assay. For visible bacterial growth with lipid II: key: − means no visible growth; + means visible growth. For visible bacterial growth without lipid II: key: − means no visible growth; + means visible growth. In kind it is cell-based, Staphylococcus aureus. Conditions: for visible bacterial growth with lipid II / visible bacterial growth without lipid II: 8×MIC of test compound, 24 h; for visible bacterial growth with lipid II: 5-fold molar excess of lipid II. The procedure: Lipid II in chloroform was added in the appropriate amount (5-fold molar excess compared to test antibiotics) to a 96-well plate and the chloroform was allowed to evaporate. […] Of these dilutions, 50 μL was mixed with the 5-fold molar excess of pure lipid II in triplicates in the plate as well as added to the plate in triplicates without lipid II present. S. aureus ATCC29123 colonies were suspended in TSB with 0.002% p80 by direct colony suspension to an optical density that reached a level equivalent to the 0.5 McFarlan standard. […] The samples were incubated at 37° C. for 24 h with constant shaking (600 rpm) and inspected for visible bacterial growth. Positive growth control consisted of wells with bacterial suspension and without antibiotic or lipid II. Negative growth control consisted of solely media without bacterial suspension, antibiotic or lipid II.
In the antagonization assay, lipid II is co-incubated with the test antibiotics in the presence of bacterial culture. When lipid II binds the glycopeptides, the binding of these antibiotics to their target in the growing bacterial culture is antagonized. This ultimately results in diminished activity of the antibiotics and bacterial growth which normally would not be visible (at 8×MIC) becomes visible. Therefore, this assay could be used to determine if part of the mechanism of action of our compounds involves binding to lipid II.

In another experiment the test system is E. faecium E7312. As to the kind of experiment: MIC assay. In kind it is cell-based, Enterococcus faecium.
The subject of the next experiment is E. faecium E1441. As to the kind of experiment: MIC assay. In kind it is cell-based, Enterococcus faecium.
Another experiment deals with E. faecium E0338. As to the kind of experiment: MIC assay. It counts as cell-based, Enterococcus faecium.
A further experiment relates to E. faecium E2297. As to the kind of experiment: MIC assay. It counts as cell-based, Enterococcus faecium. The essentials: (§1)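 Read-out: lowest concentration inhibiting growth, reported as the median MIC (μg/mL) over ≥ triplicates. Set-up: CLSI method, TSB with 0.002% polysorbate 80, 10^6 CFU/mL inoculum added in equal volume to 2-fold dilutions, 37 °C for 24 h with 600 rpm agitation.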

For another experiment, the system named is E. faecium E2365. As to the kind of experiment: MIC assay. In kind it is cell-based, Enterococcus faecium. An outline of the steps:
as §1

The next experiment has as its system E. faecium E7403. As to the kind of experiment: MIC assay. It counts as cell-based, Enterococcus faecium. The essentials:
as §1

A further experiment deals with E. faecium E7329. As to the kind of experiment: MIC assay. In kind it is cell-based, Enterococcus faecium. The essentials:
as §1

The subject of a further experiment is E. faecalis E7406. As to the kind of experiment: microbe, parasite or virus in culture. In kind it is cell-based, Enterococcus faecalis. An outline of the steps:
as §1

The subject of a further experiment is E. faecalis E7604. As to the kind of experiment: microbe, parasite or virus in culture. It counts as cell-based, Enterococcus faecalis. An outline of the steps: as §1
For experiment [1], the system named is panel of 31 vancomycin-resistant E. faecium strains. As to the kind of experiment: MIC assay, MIC50/MIC90 over panel. In kind it is cell-based, Enterococcus faecium. The procedure:
The antibacterial activity of the compounds was tested against a panel of bacteria, including Gram-positive bacteria (S. aureus ATCC29213, S. aureus USA300, S. aureus LIM-2, NR-45881, S. aureus HIP13419, NR-46413, E. faecium E155, E. faecium E7314, E. faecium E980, E. faecalis E1246, E. faecalis E7406 and S. pneumonia 153). The antibacterial activity of the compounds was further tested against S. aureus NY-155, NR-46236, S. aureus HIP12864, NR-46074, S. aureus 880 (BR-VRSA), NR-49120, E. faecalis E1246, E. faecalis E7604, as well as some Gram-negative bacteria (Escherichia coli and Klebsiella pneumoniae). Minimum inhibitory concentrations (MICs) in μg/mL were performed according to the CLSI guidelines. From glycerol stocks, bacterial strains were cultured on blood agar plates and incubated at 37° C. for 18 h. A single colony was transferred to tryptic soy broth (TSB) with 0.002% polysorbate 80 (p80). For the Enterococcus, VISA and VRSA strains, the cultures were grown at 37° C. until the optical density of the suspension reached a level equivalent to the 0.5 McFarland standard. The bacterial suspensions were diluted in TSB with 0.002% p80 to reach a bacterial cell density of 10^6 CFU/mL. In case of the other (vancomycin-sensitive) S. aureus strains, the direct colony suspension method was used. For these strains, after transfer of the colonies to TSB with 0.002% p80, they were immediately diluted to 10^6 CFU/mL, instead of incubated prior to this dilution. In the case of S. pneumonia, direct colony suspension was used by immediately suspending multiple colonies from fresh blood agar plates in TSB+0.002% p80 to an OD600 of 0.5 and subsequent dilution to 10^6 CFU mL^−1 in TSB+0.002% p80+5% lysed horse blood. Antibiotic dilutions for this strains were also made in TSB+0.002% p80+5% lysed horse blood. Both agar and microplates containing S. pneumonia were incubated at 37° C. with 5% CO2 for 24 h with constant shaking (600 rpm). […] The cultures were grown to exponential phase (OD600=0.5) at 37° C. […] In polypropylene 96-well microtiter plates, test compounds were added in biological triplicates and serial diluted 2-fold by transfer and mixing from one well to the next to achieve a final volume of 50 μL per well. An equal volume of bacterial suspension (10^6 CFU mL^−1) was added to the wells. The plates were sealed with breathable membranes and incubated at 37° C. for 24 h with constant shaking (600 rpm). In polypropylene microtiter plates, 100 μL of the test compounds was added to the first row in biological triplicates, and 50 μL of media was added to the other wells. The compounds were subjected to serial dilution by transfer and mixing of 50 μL from one well to the next. Subsequently, 50 μL of bacterial suspension (10^6 CFU/mL) was added to the wells. The plates were sealed with breathable membranes and incubated at 37° C. for 24 h with constant shaking (600 rpm). Positive growth control consisted of wells with bacterial suspension and without antibiotic. Negative growth control consisted of solely media without bacterial suspension or antibiotic. The MICs were determined from the median of a minimum of triplicates.

Another experiment has as its system E. faecium E155. As to the kind of experiment: microbe, parasite or virus in culture. It counts as cell-based, Enterococcus faecium. An outline of the steps: as §1
A further experiment concerns E. faecium E7314. As to the kind of experiment: microbe, parasite or virus in culture. It counts as cell-based, Enterococcus faecium. The essentials:
as §1

The mark [2] stands for this setting: panel of 31 vancomycin-resistant E. faecium strains.

The term MIC50 denotes the lowest concentration that inhibits either 50% of growth or 50% of the strains tested, depending on the study. The low end stands for higher susceptibility, the high end for lower susceptibility. As a reminder, the MIC90 is the lowest concentration that inhibits either 90% of growth or 90% of the strains tested, depending on the study. In the case of `CN[C@H](CC(C)C)C(=O)N[C@H]1C(=O)N[C@@H](CC(N)=O)C(=O)N[C@H]2C(=O)N[C@H]3C(=O)N[C@H](C(=O)N[C@H](C(=O)O)c4cc(O)cc(O)c4-c4cc3ccc4O)[C@H](O)c3ccc(c(Cl)c3)Oc3cc2cc(c3O[C@@H]2O[C@H](CO)[C@@H](O)[C@H](O)[C@H]2O[C@H]2C[C@](C)(NCc3ccc(N=C(N)NC/C=C(\C)CCC=C(C)C)cc3)[C@H](O)[C@H](C)O2)Oc2ccc(cc2Cl)[C@H]1O` [Compound 14], the “visible bacterial growth with lipid II” value in the experiment with S. aureus ATCC29123 is “+”. In the experiment with S. aureus ATCC29123, the “visible bacterial growth without lipid II” value was “−”. Besides, the “bacterial growth after co-incubation with lipid II” value with S. aureus ATCC29123 (8×MIC, co-incubation with lipid II) is given as “Bacterial growth was visible”. Moreover, the MIC in the experiment with E. faecium E7312 (E. faecium E7312, VanA) is 0.25 µg/mL (≈ 0.144 µM); against E. faecium E1441 (E. faecium E1441, VanA) it was 4 µg/mL (≈ 2.31 µM); in the experiment on E. faecium E0338 (E. faecium E0338, VanA), 4 µg/mL (≈ 2.31 µM); against E. faecium E2297 (E. faecium E2297, VanA), 2 µg/mL (≈ 1.15 µM); in the experiment with E. faecium E2365 (E. faecium E2365, VanB), no more than 0.008 µg/mL; against E. faecium E7403 (E. faecium E7403, VanB), no more than 0.008 µg/mL. The MIC was no more than 0.008 µg/mL in the experiment on E. faecium E7329 (E. faecium E7329, VanA); no more than 0.007812 µg/mL in the experiment on E. faecalis E7406 (E. faecalis E7406 VRE (VanB)); no more than 0.008 µg/mL in the experiment on E. faecalis E7604 (E. faecalis E7604 VRE (vanB)); 1 µg/mL (≈ 0.577 µM) in the experiment on E. faecium E155 (E. faecium E155, VanA (Table 10)); 1 µg/mL (≈ 0.577 µM) in the experiment with E. faecium E155 (E. faecium E155 VRE (VanA)); no more than 0.008 µg/mL in the experiment on E. faecium E7314 (E. faecium E7314, VanB (Table 10)). This molecule gave an MIC against E. faecium E7314 (E. faecium E7314 VRE (VanB)) of no more than 0.007812 µg/mL. The same molecule gave an MIC50 in experiment [1] (setting [2]) of 1 µg/mL (≈ 0.577 µM). The MIC90 in experiment [1] (setting [2]) is 8 µg/mL (≈ 4.62 µM).

As for `CCCCCCCCCCNCCN[C@@]1(C)C[C@H](O[C@H]2[C@H](Oc3c4cc5cc3Oc3ccc(cc3Cl)[C@@H](O)[C@@H](NC(=O)[C@@H](CC(C)C)NC)C(=O)N[C@@H](CC(N)=O)C(=O)N[C@H]5C(=O)N[C@H]3C(=O)N[C@H](C(=O)N[C@H](C(=O)O)c5cc(O)c(CNCP(=O)(O)O)c(O)c5-c5cc3ccc5O)[C@H](O)c3ccc(c(Cl)c3)O4)O[C@H](CO)[C@@H](O)[C@@H]2O)O[C@@H](C)[C@H]1O` [Telavancin, reference compound], the “visible bacterial growth with lipid II” value in the experiment on S. aureus ATCC29123 is given as “+”. Moreover, the “visible bacterial growth without lipid II” value in the experiment on S. aureus ATCC29123 was “−”. Besides, the MIC in the experiment with E. faecium E7312 (Enterococcus faecium, E7312) was 2 µg/mL (≈ 1.14 µM); in the experiment with E. faecium E1441 (Enterococcus faecium, E1441) it was 8 µg/mL (≈ 4.56 µM); in the experiment on E. faecium E0338 (Enterococcus faecium, E0338) it was 8 µg/mL (≈ 4.56 µM); in the experiment with E. faecium E2297 (Enterococcus faecium, E2297), 4 µg/mL (≈ 2.28 µM); against E. faecium E2365 (Enterococcus faecium, E2365) it was no more than 0.008 µg/mL; in the experiment with E. faecium E7403 (Enterococcus faecium, E7403) it was no more than 0.008 µg/mL. Also, the MIC in the experiment with E. faecium E7329 (Enterococcus faecium, E7329) was no more than 0.008 µg/mL; against E. faecalis E7406 (Enterococcus faecalis, VRE) it was 0.0625 µg/mL (≈ 0.0356 µM); in the experiment with E. faecalis E7604 (Enterococcus faecalis, VRE) it was 0.063 µg/mL (≈ 0.0359 µM); against E. faecium E155 (Enterococcus faecium, E155) it was 4 µg/mL (≈ 2.28 µM); against E. faecium E155 (Enterococcus faecium, VRE), 4 µg/mL (≈ 2.28 µM); against E. faecium E7314 (Enterococcus faecium, E7314) it was no more than 0.008 µg/mL. The MIC against E. faecium E7314 (Enterococcus faecium, VRE) is no more than 0.00781 µg/mL. In experiment [1] (Enterococcus faecium), the MIC50 is 4 µg/mL (≈ 2.28 µM). Moreover, the MIC90 in experiment [1] (Enterococcus faecium) is 8 µg/mL (≈ 4.56 µM).

Regarding `CN[C@H](CC(C)C)C(=O)N[C@H]1C(=O)N[C@@H](CC(N)=O)C(=O)N[C@H]2C(=O)N[C@H]3C(=O)N[C@H](C(=O)N[C@H](C(=O)O)c4cc(O)cc(O)c4-c4cc3ccc4O)[C@H](O)c3ccc(c(Cl)c3)Oc3cc2cc(c3O[C@@H]2O[C@H](CO)[C@@H](O)[C@H](O)[C@H]2O[C@H]2C[C@](C)(N)[C@H](O)[C@H](C)O2)Oc2ccc(cc2Cl)[C@H]1O` [Vancomycin, reference compound], the “visible bacterial growth with lipid II” value with S. aureus ATCC29123 was “+”. Further, in the experiment on S. aureus ATCC29123, the “visible bacterial growth without lipid II” value is “−”. For the same molecule, the MIC in the experiment with E. faecium E7312 (Enterococcus faecium, E7312) was greater than 128 µg/mL; in the experiment with E. faecium E1441 (Enterococcus faecium, E1441) it was greater than 128 µg/mL; in the experiment with E. faecium E0338 (Enterococcus faecium, E0338) it was greater than 128 µg/mL; against E. faecium E2297 (Enterococcus faecium, E2297), greater than 128 µg/mL; in the experiment on E. faecium E2365 (Enterococcus faecium, E2365) it was 16 µg/mL (≈ 11 µM); in the experiment with E. faecium E7403 (Enterococcus faecium, E7403) it was 16 µg/mL (≈ 11 µM). Besides, the MIC is 1 µg/mL (≈ 0.69 µM) against E. faecium E7329 (Enterococcus faecium, E7329); 16 µg/mL (≈ 11 µM) in the experiment with E. faecalis E7406 (Enterococcus faecalis, VRE); 16 µg/mL (≈ 11 µM) in the experiment with E. faecalis E7604 (Enterococcus faecalis, VRE); greater than 128 µg/mL against E. faecium E155 (Enterococcus faecium, E155); greater than 128 µg/mL in the experiment on E. faecium E155 (Enterococcus faecium, VRE); 128 µg/mL (≈ 88.3 µM) against E. faecium E7314 (Enterococcus faecium, E7314). For the same molecule, the MIC with E. faecium E7314 (Enterococcus faecium, VRE) worked out at 128 µg/mL (≈ 88.3 µM). In addition, the MIC50 in experiment [1] (Enterococcus faecium) amounted to 128 µg/mL (≈ 88.3 µM). In [1] (Enterococcus faecium), this molecule had an MIC90 of 128 µg/mL (≈ 88.3 µM).
